Earlier results in patent US7339052B2, “Phosphoramidite activator for oligonucleotide synthesis” (Honeywell International Inc., priority 2005, dated 2008).

- maximum solubility in acetonitrile: about 0.33 M
SMILES: c1ccc(CSc2nnn[nH]2)cc1 [BMT, 5-benzylmercaptotetrazole]
